Measured values taken from patent publication EP2260303B1, “BIOMARKER FOR THE DIAGNOSIS OF A BRAIN TUMOR” (Meyer, Helmut E., priority 2008, dated 2009).
Each block holds one compound with its values, some of them ahead of it.

Columns and labels:
[1] = system: Glioblastomzelllinie A172; assay: Chemosensitivity (dose-response curves, EC50) of A172 cell lines with modified biomarker expression; format: cell-based; conditions: Homo sapiens
Description: (§1) Alle erfindungsgemäßen Biomarker (SEQ ID No. 1 - 24), die in den differentiellen Untersuchungen identifiziert wurden, sind potentiell in der Lage an der Vermittlung der Chemosensitivität dieser Gliome beteiligt zu sein. Durch den Einsatz ausgewählter Zytostatika mit unterschiedlichen Wirkmechanismen kann überprüft werden, ob die erfindungsgemäßen Biomarker (SEQ ID No. 1 - 24) direkt mit dem Reaktionsmechanismus der in der Therapie üblichen Zytostatika wechselwirken. Hierzu wurden stabile Zelllinien hergestellt und die erfindungsgemäßen Biomarker verstärkt exprimiert (Überexpression) und vermindert (knock-down) exprimiert (siehe J. Sambrook, E.F. Fritsch, T. Maniatis (1989), Molecular cloning: A laboratory manual, 2nd Edition, Cold Spring Habor Laboratory Press, Cold Spring Habor, USA oder Ausubel, "Current Protocols in Molecular Biology", Green Publishing Associates and Wiley Interscience, N.Y. (1989)). Eingesetzte Zytostatika: Carmustin und Vincristin, zwei Substanzen aus dem in der Therapie üblichen PCV Polychemotherapieschema, und Temozolomid, einem in der Therapie […] maligner Gliome neueren Wirkstoff. Zur Auswertung eines Effekts wurden Dosis-Wirkungs-Kurven und deren Lage zueinander und der korrespondierende EC50 Wert (Effektkonzentration; EC-50-Wert besagt, dass bei dieser Konzentration des Stoffes die Hälfte der Versuchsorganismen Wirkungen zeigt) berechnet.

[2] = system: Glioblastomzelllinie T98G; assay: Chemosensitivity (dose-response curves, EC50) of T98G cell lines with modified biomarker expression; format: cell-based; conditions: Homo sapiens
Description: as §1

[3] = system: stabilen Zelllinien aus A172 und T98G; assay: Comparison of the response of the stable A172 and T98G cell lines to cytostatics (summary in words); format: cell-based, human; conditions: versus control; for Verschiebung der Konzentrationen (Dosis-Wirkungs-Kurven): both cell lines
Description: as §1
Eine veränderte Reaktion auf eine Behandlung mit Carmustin wurde in allen stabilen Zelllinien aus A172 sowie aus T98G beobachtet.
Einen ähnlichen Effekt zeigte die Behandlung der Zelllinien mit Vincristin. […] Dieses Verhalten wurde ebenfalls in den beiden Zelllinien beobachtet.

EC50 ([1]; A 172, A172 knock-down of ANXA1, treatment with Carmustin): 95.6 µM
EC50 ([1]; A 172, A172 knock-down of CLIC1, treatment with Carmustin): 171 µM
EC50 ([1]; A 172, A172 knock-down of PRDX1, treatment with Carmustin): 107 µM
EC50 ([1]; A 172, A172 knock-down of VIL2, treatment with Carmustin): 90.8 µM
EC50 ([1]; A 172, A172 knock-down series, control cell line (Kontrolle), treatment with Carmustin): 94.4 µM
EC50 ([1]; A 172, A172 overexpressing ANXA1, treatment with Carmustin): 88.3 µM
EC50 ([1]; A 172, A172 overexpressing CLIC1, treatment with Carmustin): 105 µM
EC50 ([1]; A 172, A172 overexpressing PRDX1, treatment with Carmustin): 35.7 µM
EC50 ([1]; A 172, A172 overexpressing VIL2, treatment with Carmustin): 106 µM
EC50 ([1]; A 172, A172 overexpression series, control cell line (Kontrolle), treatment with Carmustin): 7.87 µM
EC50 ([2]; T98G knock-down of ANXA1, treatment with Carmustin): 121 µM
EC50 ([2]; T98G knock-down of CLIC1, treatment with Carmustin): 85.5 µM
EC50 ([2]; T98G knock-down of PRDX1, treatment with Carmustin): 118 µM
EC50 ([2]; T98G knock-down of VIL2, treatment with Carmustin): 159 µM
EC50 ([2]; T98G knock-down series, control cell line (Kontrolle), treatment with Carmustin): 152 µM
EC50 ([2]; T98G overexpressing ANXA1, treatment with Carmustin): 207 µM
EC50 ([2]; T98G overexpressing CLIC1, treatment with Carmustin): 346 µM
EC50 ([2]; T98G overexpressing PRDX1, treatment with Carmustin): 158 µM
EC50 ([2]; T98G overexpressing VIL2, treatment with Carmustin): 223 µM
EC50 ([2]; T98G overexpression series, control cell line (Kontrolle), treatment with Carmustin): 64.8 µM
Compound: O=NN(CCCl)C(=O)NCCCl [Carmustin]

EC50 ([1]; A 172, A172 knock-down of ANXA1, treatment with Temozolomid): 113 µM
EC50 ([1]; A 172, A172 knock-down of CLIC1, treatment with Temozolomid): 150 µM
EC50 ([1]; A 172, A172 knock-down of PRDX1, treatment with Temozolomid): 118 µM
EC50 ([1]; A 172, A172 knock-down of VIL2, treatment with Temozolomid): 115 µM
EC50 ([1]; A 172, A172 knock-down series, control cell line (Kontrolle), treatment with Temozolomid): 41 µM
EC50 ([1]; A 172, A172 overexpressing ANXA1, treatment with Temozolomid): 123 µM
EC50 ([1]; A 172, A172 overexpressing CLIC1, treatment with Temozolomid): 82.6 µM
EC50 ([1]; A 172, A172 overexpressing PRDX1, treatment with Temozolomid): 26.4 µM
EC50 ([1]; A 172, A172 overexpressing VIL2, treatment with Temozolomid): 83.1 µM
EC50 ([1]; A 172, A172 overexpression series, control cell line (Kontrolle), treatment with Temozolomid): 165 µM
EC50 ([2]; T98G knock-down of ANXA1, treatment with Temozolomid): 386 µM
EC50 ([2]; T98G knock-down of CLIC1, treatment with Temozolomid): 335 µM
EC50 ([2]; T98G knock-down of PRDX1, treatment with Temozolomid): 383 µM
EC50 ([2]; T98G knock-down of VIL2, treatment with Temozolomid): 348 µM
EC50 ([2]; T98G knock-down series, control cell line (Kontrolle), treatment with Temozolomid): 327 µM
EC50 ([2]; T98G overexpressing ANXA1, treatment with Temozolomid): 409 µM
EC50 ([2]; T98G overexpressing CLIC1, treatment with Temozolomid): 334 µM
EC50 ([2]; T98G overexpressing PRDX1, treatment with Temozolomid): 321 µM
EC50 ([2]; T98G overexpressing VIL2, treatment with Temozolomid): 396 µM
EC50 ([2]; T98G overexpression series, control cell line (Kontrolle), treatment with Temozolomid): 394 µM
Compound: Cn1nnc2c(C(N)=O)ncn2c1=O [Temozolomid]
Sensitivität ([3]; biomarkers overexpressed, stable cell lines from A172 and T98G): erhöhte Sensitivität
Sensitivität ([3]; knock-down cell lines from A172 and T98G): umgekehrter Effekt

EC50 ([1]; A 172, A172 knock-down of ANXA1, treatment with Vincristin): 0.037 µM
EC50 ([1]; A 172, A172 knock-down of CLIC1, treatment with Vincristin): 0.0642 µM
EC50 ([1]; A 172, A172 knock-down of PRDX1, treatment with Vincristin): 0.0527 µM
EC50 ([1]; A 172, A172 knock-down of VIL2, treatment with Vincristin): 0.0202 µM
EC50 ([1]; A 172, A172 knock-down series, control cell line (Kontrolle), treatment with Vincristin): 0.0322 µM
EC50 ([1]; A 172, A172 overexpressing ANXA1, treatment with Vincristin): 0.0153 µM
EC50 ([1]; A 172, A172 overexpressing CLIC1, treatment with Vincristin): 0.0193 µM
EC50 ([1]; A 172, A172 overexpressing PRDX1, treatment with Vincristin): 0.0127 µM
EC50 ([1]; A 172, A172 overexpressing VIL2, treatment with Vincristin): 0.0033 µM
EC50 ([1]; A 172, A172 overexpression series, control cell line (Kontrolle), treatment with Vincristin): 0.0152 µM
EC50 ([2]; T98G knock-down of ANXA1, treatment with Vincristin): 0.0191 µM
EC50 ([2]; T98G knock-down of CLIC1, treatment with Vincristin): 0.0269 µM
EC50 ([2]; T98G knock-down of PRDX1, treatment with Vincristin): 0.0206 µM
EC50 ([2]; T98G knock-down of VIL2, treatment with Vincristin): 0.0358 µM
EC50 ([2]; T98G knock-down series, control cell line (Kontrolle), treatment with Vincristin): 0.01 µM
EC50 ([2]; T98G overexpressing ANXA1, treatment with Vincristin): 0.0042 µM
EC50 ([2]; T98G overexpressing CLIC1, treatment with Vincristin): 0.0037 µM
EC50 ([2]; T98G overexpressing PRDX1, treatment with Vincristin): 0.0096 µM
EC50 ([2]; T98G overexpressing VIL2, treatment with Vincristin): 0.0241 µM
EC50 ([2]; T98G overexpression series, control cell line (Kontrolle), treatment with Vincristin): 0.0324 µM
Compound: CC[C@]1(O)C[C@H]2CN(CCc3c([nH]c4ccccc34)[C@@](C(=O)OC)(c3cc4c(cc3OC)N(C=O)[C@H]3[C@@](O)(C(=O)OC)[C@H](OC(C)=O)[C@]5(CC)C=CCN6CC[C@]43[C@@H]65)C2)C1 [Vincristin]
Verschiebung der Konzentrationen (Dosis-Wirkungs-Kurven) ([3]; cell lines overexpressing the biomarkers): Verschiebung zu niedrigeren Konzentrationen
Verschiebung der Konzentrationen (Dosis-Wirkungs-Kurven) ([3]; knock-down of the biomarkers): höhere Konzentrationen notwendig
